The values that follow are results of earlier work, collected in US4975422A, “Angiogenesis inhibitor” (Kureha Kagaku Kogyo Kabushiki Kaisha, priority 1988, dated 1990).

One may read the LD50 as the dose expected to kill half of the subjects tested.

For this data set the following is noted: oral; species not stated.

For the molecule `COc1ccc2c(c1)c(CC(=O)O)c(C)n2C(=O)c1ccc(Cl)cc1` [indomethacin], the LD50 is given as 50 mg/kg.
